Reference: US7799954B2, “Dicarbonyl derivatives and methods of use” (Abraxis BioScience, LLC, priority 2006, dated 2010)

Each molecule was assayed on MX-1 (human breast carcinoma) cells (assay: in vitro growth inhibition, Promega CellTiter Blue Cell Viability Assay). Conditions: MX1, 72 h.
Format: cell-based
Description: The cytotoxicity assay was quantitated using the Promega CellTiter Blue Cell Viability Assay. Briefly, cells (5000 cells/well) were plated onto 96-well microtiter plates in RPMI 1640 medium supplemented with 10% FBS and incubated at […] in a humidified 5% CO2 atmosphere. After 24 h, cells were exposed to various concentrations of compound in DMSO and cultured for another 72 h. 100 ul of media were removed and 20 ul of Promega CellTiter Blue reagent were added to each well and shaken to mix. After 4 hours of incubation at 37° C. in a humidified 5% CO2 atmosphere, the plates were read at 544 ex/620 em. The fluorescence produced is proportional to the number of viable cells. After plotting fluorescence produced against drug concentration, the IC50 was calculated as the […] of the resulting non-linear regression.

Structure (SMILES) | IC50 [µM]
CCCC/C=C/C(=O)CCC(=O)/C=C/CCCC [Compound 15] | 7.99
O=C1c2ccccc2CCC1C1CCc2ccccc2C1=O (centres unmarked) [Compound 6] | > 1000
COc1ccc2c(c1)CCC(C1CCc3cc(OC)ccc3C1=O)C2=O (centres unmarked) [Compound 5] | > 1000
CC1(C)C=CC(=O)C(C2CC(C)(C)C=CC2=O)C1 (centres unmarked) [Compound 2] | 56.8
O=C(/C=C/c1ccccc1)CC1CCC=CC1=O (centres unmarked) [Compound 21] | 0.42
CC(C)=CC(=O)CCC(=O)C=C(C)C [Compound 11] | 10.3
O=C(O)/C=C/C(=O)/C=C/c1ccccc1 [Compound 28] | 3.96
COc1ccc(/C=C/C(=O)/C=C/C(=O)N2CCN(c3ccccc3)CC2)cc1OC [Compound 38] | 0.25
CN(C)C1=CC(=O)C(C2C(=O)C=C(N(C)C)CC2(C)C)C(C)(C)C1 (centres unmarked) [Compound 1] | > 1000
O=C(/C=C/c1ccccc1)CCC(=O)/C=C/c1ccccc1 [Compound 13] | 37.9
COc1ccc(/C=C/C(=O)/C=C/C(=O)O)cc1OC [Compound 29] | 29
C/C=C/C(=O)C(C)C(C)C(=O)/C=C/C (centres unmarked) [Compound 7] | 2.63
CCOC1=CC(=O)C(C2CCC(OCC)=CC2=O)CC1 (centres unmarked) [Compound 4] | > 1000
COc1ccc(/C=C/C(=O)/C=C/C(=O)N2CCN(c3ccncc3)CC2)cc1OC [Compound 37] | 0.12
CC(C(=O)c1ccccc1)C(C)C(=O)c1ccccc1 (centres unmarked) [Compound 12] | > 1000
O=C(/C=C/c1cccc(Cl)c1)CCC(=O)/C=C/c1cccc(Cl)c1 [Compound 14] | 55.7
O=C(CCC(=O)C1=CCCCC1)C1=CCCCC1 [Compound 10] | > 1000
O=C1OC(c2ccccc2)CC1C1CC(c2ccccc2)OC1=O (centres unmarked) [Compound 9] | 472
COc1ccc(/C=C/C(=O)CC2CCC=CC2=O)cc1OC (centres unmarked) [Compound 23] | 0.17
COc1cc(/C=C/C(=O)/C=C/C(=O)O)cc(OC)c1OC [Compound 30] | 34.2
O=C1CCC(c2ccccc2)CC1C1CC(c2ccccc2)CCC1=O (centres unmarked) [Compound 3] | 29.7
O=C(/C=C/c1ccc2c(c1)OCO2)CC1CCC=CC1=O (centres unmarked) [Compound 24] | 0.7
C/C=C/C(=O)C(C)C1CCC=CC1=O (centres unmarked) [Compound 20] | 0.52

Same assay, conditions: MX1, MX-1 cells, 72 h exposure, CellTiter Blue fluorescence 544 ex/620 em, read-out: IC50

Structure (SMILES) | IC50 [µM]
COC(=O)/C=C/C(=O)Nc1ccc(F)cc1 [Compound 41] | 121
O=C1c2cc(F)ccc2OCC1C1COc2ccc(F)cc2C1=O (centres unmarked) [Compound 18] | > 1000
CCOC(=O)/C=C/C(=O)/C=C/c1ccccc1 [Compound 31] | 2.17
CCCN(C)C(=O)/C=C/C(/C=C/c1ccccc1)=N\OC [Compound 43] | 171
O=C(/C=C/C(=O)Nc1ccccc1)/C=C/c1ccccc1 [Compound 33] | 3.25
O=C(/C=C/c1cccc(C(F)(F)F)c1)CC1CCC=CC1=O (centres unmarked) [Compound 26] | 2.59
CCCN(C)C(=O)/C=C/C(=O)/C=C/c1ccc(OC)c(OC)c1 [Compound 34] | 0.28
C/C=C/C(=O)C(C)CC(=O)/C=C/c1ccccc1 (centres unmarked) [Compound 22] | 2.07
COc1ccc(/C=C/C(/C=C/C(=O)N2CCN(C)CC2)=NOCc2ccccc2)cc1OC [Compound 48] | 23.4
COc1ccc(/C=C/C(/C=C/C(=O)N2CCN(C)CC2)=NOc2ccccc2)cc1OC [Compound 47] | 8.73
CCCN(C)C(=O)/C=C/C(=O)/C=C/c1ccccc1 [Compound 32] | 0.39
COc1cc(/C=C/C(=O)/C=C/C(=O)N2CCN(c3ccncc3)CC2)cc(OC)c1OC [Compound 40] | 0.48
COc1ccc(/C=C/C(=O)/C=C/C(=O)N2CCN(C)CC2)cc1OC [Compound 36] | 0.17
COc1ccc(/C=C/C(/C=C/C(=O)N2CCN(C)CC2)=NO)cc1OC [Compound 45] | 371
CON=C(/C=C/C(=O)N1CCN(C)CC1)/C=C/c1cc(OC)c(OC)c(OC)c1 [Compound 49] | > 1000
CO/N=C(\C=C\c1ccc(OC)c(OC)c1)CC1CCC=C/C1=N\OC (centres unmarked) [Compound 42] | 128
O=C(O)c1cc(/C=C/c2ccccc2)no1 [Compound 50] | > 1000
CC(C)=C/C=C/C(=O)CCC(=O)/C=C/C=C(C)C [Compound 16] | 16.2
COc1cc(/C=C/C(=O)/C=C/C(=O)N2CCN(C)CC2)cc(OC)c1OC [Compound 39] | 0.8
CCCN(C)C(=O)c1cc(/C=C/c2ccccc2)no1 [Compound 52] | 195
COc1ccc(/C=C/C(=O)CCC(=O)/C=C/c2ccc(OC)c(OC)c2)cc1OC [Compound 17] | 73.1
COc1ccc(/C=C/C(=O)/C=C/C(=O)Nc2ccccc2)cc1OC [Compound 35] | 0.89
CCOC(=O)CCC(=O)/C=C/c1ccccc1 [Compound 27] | 77.5
CON=C(/C=C/C(=O)N1CCN(C)CC1)/C=C/c1ccc(OC)c(OC)c1 [Compound 46] | 482
CCOC(=O)c1cc(/C=C/c2ccccc2)no1 [Compound 51] | 533
CC(C)=CC(=O)CC1CCC=CC1=O (centres unmarked) [Compound 19] | 1.04
O=C(/C=C/c1ccc(O)cc1)CC1CCC=CC1=O (centres unmarked) [Compound 25] | 0.16
